From patent US7355063B2, “Shogaol compound and tyrosinase activity inhibitor comprising the compound” (Toagosei Co., Ltd., priority 2003, dated 2008)

Tests used:
[1] = Dissolution of test compound for the hyaluronic acid-degrading enzyme test; assay type: physicochemical; conditions: concentration of 0.4 mg/ml, acetate buffer
Protocol: First, the following solutions shown in A to H were each prepared. • A: 0.1M acetate buffer solution was prepared by dissolving 0.60 g of acetic acid in 100 ml of distilled water. • B: A hyaluronidase solution was prepared by dissolving 7.2 mg of a hyaluronic acid-degrading enzyme (derived from bovine testicles manufactured by Sigma Corporation, Type IV-S) into 3.0 ml of the acetate buffer (prepared in the above A). • C: An activator solution was prepared by dissolving 1.0 mg of compound 48/80 (a hyaluronidase activator manufactured by Sigma Corporation) into 10.0 ml of the acetate buffer (prepared in the above A). • D: A hyaluronic acid solution was prepared by dissolving 12.0 mg of potassium hyaluronate (manufactured by Wako Pure Chemical Industries, Ltd.) into 15.0 ml of the acetate buffer (prepared in the above A). • E: A 0.4N sodium hydroxide aqueous solution was prepared by dissolving 1.60 g of sodium hydroxide into 100 ml of distilled water. • F: After 4.95 g of boric acid was dissolved into 50 ml of distilled water, a 1N sodium hydroxide aqueous solution was added until pH reached 9.1. Subsequently, the whole amount was made 100 ml by adding distilled water. • G: 1.0 g of p-dimethylaminobenzaldehyde, 1.25 ml of 10N hydrochloric acid, and 8.75 ml of acetic acid were mixed. […]

[2] = biological target: T1, hyaluronic acid-degrading enzyme (derived from bovine testicles, Type IV-S) (Bos taurus, UniProt Q2YDK3); assay: Hyaluronic acid-degrading enzyme activity inhibition test; assay type: biochemical
T1 construct: derived from bovine testicles manufactured by Sigma Corporation, Type IV-S; purchased Sigma Corporation Type IV-S; host or cells: bovine testicles
T1 sequence (Q2YDK3 36-553): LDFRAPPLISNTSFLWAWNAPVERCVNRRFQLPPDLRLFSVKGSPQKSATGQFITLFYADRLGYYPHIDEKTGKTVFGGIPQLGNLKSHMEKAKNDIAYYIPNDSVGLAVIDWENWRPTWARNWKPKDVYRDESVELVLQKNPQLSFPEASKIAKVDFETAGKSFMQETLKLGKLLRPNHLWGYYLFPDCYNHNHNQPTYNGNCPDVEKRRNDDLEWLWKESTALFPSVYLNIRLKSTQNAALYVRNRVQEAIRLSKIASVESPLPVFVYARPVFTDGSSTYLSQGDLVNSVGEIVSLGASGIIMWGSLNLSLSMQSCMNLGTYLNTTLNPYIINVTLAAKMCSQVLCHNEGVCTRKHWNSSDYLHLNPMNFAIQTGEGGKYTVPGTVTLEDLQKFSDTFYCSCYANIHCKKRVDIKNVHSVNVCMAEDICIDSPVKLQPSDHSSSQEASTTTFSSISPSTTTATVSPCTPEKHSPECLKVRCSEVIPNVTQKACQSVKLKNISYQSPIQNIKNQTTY
Protocol: Using the compound 7 obtained in Example 2, the compound 34, and magnesium ascorbate phosphate as a comparative control, a hyaluronic acid-degrading enzyme activity inhibition test was carried out.
First, the following solutions shown in A to H were each prepared. • A: 0.1M acetate buffer solution was prepared by dissolving 0.60 g of acetic acid in 100 ml of distilled water. • B: A hyaluronidase solution was prepared by dissolving 7.2 mg of a hyaluronic acid-degrading enzyme (derived from bovine testicles manufactured by Sigma Corporation, Type IV-S) into 3.0 ml of the acetate buffer (prepared in the above A). • C: An activator solution was prepared by dissolving 1.0 mg of compound 48/80 (a hyaluronidase activator manufactured by Sigma Corporation) into 10.0 ml of the acetate buffer (prepared in the above A). • D: A hyaluronic acid solution was prepared by dissolving 12.0 mg of potassium hyaluronate (manufactured by Wako Pure Chemical Industries, Ltd.) into 15.0 ml of the acetate buffer (prepared in the above A). • E: A 0.4N sodium hydroxide aqueous solution was prepared by dissolving 1.60 g of sodium hydroxide into 100 ml of distilled water. • F: After 4.95 g of boric acid was dissolved into 50 ml of distilled water, a 1N sodium hydroxide aqueous solution was added until pH reached 9.1. Subsequently, the whole amount was made 100 ml by adding distilled water. • G: 1.0 g of p-dimethylaminobenzaldehyde, 1.25 ml of 10N hydrochloric acid, and 8.75 ml of acetic acid were mixed. The solution was used after the whole amount was made 100 ml by adding acetic acid immediately before use. • H: Each test compound was dissolved in the acetate buffer (prepared in the above A) so the final test concentration became 0.5 mg/ml and 1.0 mg/ml.
Next, the experimental operation was carried out with the procedures shown in the following (1) to (8).
(1) 0.2 ml of the test compound solution (prepared in the above H) and 0.1 ml of the hyaluronic acid-degrading enzyme solution (prepared in the B) were mixed and the whole was incubated at 37° C. for 20 minutes.
(2) To the above reaction solution was added 0.2 ml of the activator solution (prepared in the above C) and the whole was incubated at 37° C. for 20 minutes.
(3) To the above reaction solution was added 0.5 ml of the hyaluronic acid solution (prepared in the above D), and the whole was incubated at 37° C. for 40 minutes.
(4) To the above reaction solution was added 0.2 ml of the 0.4N sodium hydroxide aqueous solution (prepared in the above E), and the whole was cooled in an ice bath.
(5) To the above reaction solution was added 0.2 ml of the boric acid solution (prepared in the above F), and the whole was heated at 100° C. for 3 minutes.
(6) The above reaction solution was cooled in an ice bath.
(7) To the above reaction solution was added 3.0 ml of the p-dimethylaminobenzaldehyde solution (prepared in the above G), and the whole was incubated at 37° C. for 20 minutes.
(8) Absorbance of the reaction solution at 585 nm was measured using a spectrophotometer.
The above experimental operations were repeated three times, and the resulting numeric value was inserted in the following calculation formula and a mean value thereof was regarded as a hyaluronic acid-degrading enzyme activity inhibition ratio (%). Hyaluronic acid-degrading enzyme activity inhibition ratio (%)=(A−B)/A×100
A=absorbance obtained at the time when operation was carried out with addition of no test compound
B=absorbance obtained at the time when operation was carried out with addition of test compound
The compounds of the invention and magnesium ascorbate phosphate were each used in an enzymatic reaction solution in amounts of 0.1 mg/ml, 0.2 mg/ml, and 0.4 mg/ml, and the results were shown in Table 7 (since the compound 7 was not dissolved in a concentration of 0.4 mg/ml, the test was not carried out).

[3] = Test of scavenging DPPH radical (Test Example 8, 517 nm); conditions: final concentration of 10 μg/mL; 20 minutes, room temperature
Protocol: Using the compound 7 obtained in Example 2 as well as dl-α-tocopherol (manufactured by Tokyo Kasei Kogyo Co., Ltd.) and butylhydroxytoluene (BHT) as comparative controls, a test of scavenging DDPH (1,1-diphenyl-2-picrylhydrazyl) radical, a stable radical, was carried out.
1 ml of 200 μM DPPH ethanol solution was added to 800 μl of 100 mM Tris-HCl buffer (pH 7.4) and 200 μl of an ethanol solution of the compound 7 (a final concentration of 10 μg/mL), followed by sufficient stirring. After the resulting mixture was allowed to stand in a dark place at room temperature for 20 minutes, the absorbance at 517 nm was measured (absorbance of the test solution)
The compound 13 of the invention as well as dl-α-tocopherol and butylhydroxytoluene as a known radical scavenger were similarly tested.
As a control, 800 μl of 100 mM Tris-HCl buffer (pH 7.4), 200 μl of ethanol, and 1 ml of 200 μM DPPH ethanol solution were used in the same manner as described above and the absorbance was measured (absorbance of the control solution).
With the individual compounds, the same measurement was repeated three times, and the mean value was inserted in the following formula to calculate a DPPH radical-scavenging ratio (%). DPPH radical-scavenging ratio (%)=[1−(absorbance of sample solution/absorbance of control solution)]×100

mushroom tyrosinase = assay: Tyrosinase activity inhibition test using L-dopa as substrate (Test Examples 1 and 2, absorbance at 475 nm); assay type: biochemical; conditions: Table 1
Protocol: Using the compound 7 obtained in Example 2, the compound 13 obtained in Example 5, a mixture of the compound 18 and the compound 19 (existing molar ratio 45:55) obtained in Example 7, and arbutin (manufactured by Tokyo Kasei Kogyo Co., Ltd.) as a comparative control, a tyrosinase activity inhibition test was carried out using L-dopa as a substrate.
The specific test procedures are as follows. • (1) 1.80 ml of a phosphate buffer prepared by dissolving 1.000 g of sodium dihydrogen phosphate and 1.186 g of disodium hydrogen phosphate in 500 ml of distilled water, 1.00 ml of a substrate solution prepared by dissolving 32.7 mg of L-DOPA in 200 ml of distilled water, and 0.10 ml of a test solution prepared by dissolving the test compound in dimethyl sulfoxide were mixed together. • (2) 0.10 ml of an enzyme solution prepared by dissolving 3.0 mg (2400 units; manufactured by Sigma Corporation) of mushroom tyrosinase in 7.0 ml of distilled water was added to the solution prepared in (1), and the whole was stirred for 15 seconds. The resulting solution was maintained at 25° C., and the absorbance at 475 nm was measured one minute and 45 seconds later and 2 minutes and 45 seconds later. • (3) The test operations in the above (1) and (2) were conducted three times for the individual test compounds and blank test (only dimethyl sulfoxide), and the resulting numeric value was inserted in the following calculation formula and a mean value thereof was regarded as a tyrosinase activity inhibition ratio (%). Tyrosinase activity inhibition ratio (%)=[(T^1−T^2)/T^1]×100 • T^1=difference in absorbance of solution with addition of no test compound between 2 minutes and 45 seconds later and one minute and 45 seconds later • T^2=difference in absorbance of solution with addition of test compound was added between 2 minutes and 45 seconds later and one minute and 45 seconds later
Using the compound 40 obtained in Example 24 and arbutin (manufactured by Tokyo Kasei Kogyo Co., Ltd.) as a comparative control, a tyrosinase activity inhibition test was carried out using L-dopa as a substrate. The test procedure was in accordance with Test Example 1.

Solubility in the test solution [1]: not dissolved
Hyaluronic acid-degrading enzyme activity inhibition ratio (%) ([2]; 0.1 mg/mL): 10.6%
Hyaluronic acid-degrading enzyme activity inhibition ratio (%) ([2]; 0.2 mg/mL): 41.3%
Tyrosinase activity inhibition ratio (%) (mushroom tyrosinase; 0.5 mg/mL in enzymatic reaction solution): 59.8%
Tyrosinase activity inhibition ratio (%) (mushroom tyrosinase; 1 mg/mL in enzymatic reaction solution): 77.1%
SMILES: COc1cc(CCC(=O)/C=C/CCCCCCC(=O)O)ccc1O [Compound 7]
DPPH radical-scavenging ratio (%) [3]: 33.7%
